Source: patent publication US11154619B2, “Liposomal compositions with light illumination-induced drug release” (Creighton University, priority 2017, dated 2021)
Structures can show the parent of a compound that is named as a salt.

Tested on: WI26-VA4 cells
Assay: Doxorubicin cytotoxicity by MTT cell viability assay, liposomes with or without pre-illumination
Type: cell-based
Settings: total dose of 1 μM; co-incubated with cells for 4 hours; evaluated 48 hours after treatment; no illumination
Protocol: Studies were performed on the fluorescent marker- or drug-loaded liposomes described above diluted to a concentration of 0.2 mM by total lipids with or without the photosensitizer-peptide conjugate described above at 1:80 to 1:5 molar ratio to total lipids. Optionally, samples were also supplied with antioxidants/reducing agents or other additional substances at different concentrations. Samples were either illuminated as described below or kept for the same time period under different control conditions.
Illumination of prepared liposomes with or without photosensitizer-peptide conjugate was mostly preformed using a setup that included a halogen utility lamp, a 2-inch thick flowing water filter to cut infrared irradiation above 950 nm and a red optical cast plastic filter (EdmundOptics) to cut off light irradiation below 620 nm (FIG. 1). […]
Release of the drug substance (doxorubicin hydrochloride) from the liposomes was done by enhancement of its biological action (cytotoxicity) on cultured WI26-VA4 cells after pre-illuminating liposomes with or without photosensitizer-peptide conjugate in comparison to liposomes at the same dose without pre-illumination, co-incubated with cells for 4 hours. The extent of cell death was evaluated 48 hours after treatment using a MTT cell viability assay.

## COc1cccc2c1C(=O)c1c(O)c3c(c(O)c1C2=O)C[C@@](O)(C(=O)CO)C[C@@H]3O[C@H]1C[C@H](N)[C@H](O)[C@H](C)O1 [doxorubicin hydrochloride]
  cell death: about 60%
